In PMC3266667 (Frontiers in Pharmacology, 2012):
Like-named read-outs stand apart in the source and are kept apart here.

Molecular target: hERG K+ channels (Homo sapiens, UniProt Q12809)
[1] = Patchliner, CHO-hERG cells, physiological temperature

Chain of hERG K+ channels (Q12809 whole entry): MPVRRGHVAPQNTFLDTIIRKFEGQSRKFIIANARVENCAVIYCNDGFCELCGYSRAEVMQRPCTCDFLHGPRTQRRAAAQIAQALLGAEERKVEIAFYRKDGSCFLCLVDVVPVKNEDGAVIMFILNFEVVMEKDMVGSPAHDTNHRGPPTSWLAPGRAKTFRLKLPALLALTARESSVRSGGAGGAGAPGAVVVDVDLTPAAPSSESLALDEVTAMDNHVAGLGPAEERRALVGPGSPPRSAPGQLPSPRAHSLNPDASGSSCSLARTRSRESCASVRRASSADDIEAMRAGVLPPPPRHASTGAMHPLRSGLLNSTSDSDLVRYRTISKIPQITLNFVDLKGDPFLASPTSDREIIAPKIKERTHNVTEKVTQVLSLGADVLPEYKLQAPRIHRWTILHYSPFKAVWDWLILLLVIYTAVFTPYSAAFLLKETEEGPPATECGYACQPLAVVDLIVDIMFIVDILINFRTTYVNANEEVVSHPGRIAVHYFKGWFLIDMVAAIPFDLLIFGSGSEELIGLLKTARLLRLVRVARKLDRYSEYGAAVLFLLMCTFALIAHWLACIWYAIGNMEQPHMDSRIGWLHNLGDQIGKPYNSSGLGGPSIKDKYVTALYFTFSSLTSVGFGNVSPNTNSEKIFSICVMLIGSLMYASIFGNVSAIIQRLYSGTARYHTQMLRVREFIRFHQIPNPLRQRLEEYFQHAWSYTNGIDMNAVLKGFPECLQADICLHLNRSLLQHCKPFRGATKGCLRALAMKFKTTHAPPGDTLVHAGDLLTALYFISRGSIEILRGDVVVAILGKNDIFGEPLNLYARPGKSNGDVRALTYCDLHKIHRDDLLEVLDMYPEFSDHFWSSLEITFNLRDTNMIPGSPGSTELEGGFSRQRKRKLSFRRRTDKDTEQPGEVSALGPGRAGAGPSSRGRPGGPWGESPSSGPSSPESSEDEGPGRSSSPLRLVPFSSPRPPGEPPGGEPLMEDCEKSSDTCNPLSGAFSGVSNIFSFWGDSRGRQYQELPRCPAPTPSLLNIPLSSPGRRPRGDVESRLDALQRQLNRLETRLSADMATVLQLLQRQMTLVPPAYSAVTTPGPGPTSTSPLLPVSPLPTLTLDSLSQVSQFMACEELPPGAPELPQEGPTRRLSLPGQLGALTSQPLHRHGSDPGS

| Compound | effect on the hERG current (in words) | effect on the hERG current (in words) [1] | further results |
| --- | --- | --- | --- |
| CC(C)NCC(O)c1ccc(NS(C)(=O)=O)cc1 (racemic) [D,L-Sotalol] | intermediate effect on the hERG current | – | – |
| C[C@H](CS)C(=O)N1CCC[C@H]1C(=O)O [Captopril] | – | did not affect the hERG current up to the highest concentration tested | – |
| COc1cc(N)c(Cl)cc1C(=O)NC1CCN(CCCOc2ccc(F)cc2)CC1OC (centres unmarked) [Cisapride] | – | – | effect on the hERG current (in words) (human): IC50 values in the low and mid-nanomolar range |
| CC(C)Cc1ccc(C(C)C(=O)O)cc1 (centres unmarked) [Ibuprofen] | – | did not affect the hERG current up to the highest concentration tested | – |
| Cc1cc2c(s1)Nc1ccccc1N=C2N1CCN(C)CC1 [Olanzapine] | intermediate effect on the hERG current | – | – |
